Reference: PMC10256809, “Unlocking the potentials of cyanobacterial photosynthesis for directly converting carbon dioxide into glucose” (Nature Communications, 2023)

Tests used:
Glk2 = molecular target: T1, Glk2 (Synechococcus elongatus, UniProt Q31LC8); experiment: PK/LDH-coupled sugar phosphorylation assay, […] nm; format: biochemical; details: 10 mM sugar, 2.5 mM ATP, 4 mM MgCl2, 20 mM KCl, Tris-HCl pH 7.8
T1 construct: gene Synpcc7942_2111
T1 sequence (Q31LC8 1-302): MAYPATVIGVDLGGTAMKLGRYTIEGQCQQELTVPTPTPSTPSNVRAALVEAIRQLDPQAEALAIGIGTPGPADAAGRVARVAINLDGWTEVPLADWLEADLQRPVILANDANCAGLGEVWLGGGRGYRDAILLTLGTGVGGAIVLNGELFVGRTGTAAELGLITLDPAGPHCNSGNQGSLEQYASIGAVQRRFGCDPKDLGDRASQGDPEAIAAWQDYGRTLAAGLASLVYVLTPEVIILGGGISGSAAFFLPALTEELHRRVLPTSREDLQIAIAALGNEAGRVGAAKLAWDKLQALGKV

Glk1 = molecular target: T2, Glk1 (Synechococcus elongatus, UniProt Q31RR6); experiment: PK/LDH-coupled sugar phosphorylation assay, […] nm; format: biochemical; details: 10 mM sugar, 2.5 mM ATP, 4 mM MgCl2, 20 mM KCl, Tris-HCl pH 7.8
T2 construct: gene glk
T2 sequence (Q31RR6 1-345): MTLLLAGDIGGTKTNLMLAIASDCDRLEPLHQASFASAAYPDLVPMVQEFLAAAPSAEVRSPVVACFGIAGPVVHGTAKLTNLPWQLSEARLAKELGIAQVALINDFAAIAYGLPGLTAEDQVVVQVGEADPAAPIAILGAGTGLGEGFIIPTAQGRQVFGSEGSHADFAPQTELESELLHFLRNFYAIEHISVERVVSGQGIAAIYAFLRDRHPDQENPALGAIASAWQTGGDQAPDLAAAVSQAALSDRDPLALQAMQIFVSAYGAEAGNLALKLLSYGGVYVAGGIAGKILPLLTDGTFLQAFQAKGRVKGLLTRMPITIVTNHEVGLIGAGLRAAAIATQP

## OC[C@H]1OC(O)[C@H](O)[C@@H](O)[C@@H]1O (some centres unmarked) [glucose]
Glk2
  PK/LDH-coupled sugar phosphorylation assay, 340 nm: both the two glucokinases showed phosphorylation activities on some other sugars besides glucose
Glk1
  PK/LDH-coupled sugar phosphorylation assay, 340 nm: both the two glucokinases showed phosphorylation activities on some other sugars besides glucose
